15 compounds from ChEMBL document CHEMBL3046732, “Synthesis and biological evaluation of new [1,3,4]thiadiazepino[7,6-b]quinolin-2-amines as potent anti-microbial agents” (2013) can be followed below.

Usually MIC stands for the lowest concentration that inhibits growth of the organism.

The structures appear in SMILES notation. Bounds are passed on as bounds.

In one assay the test system is Staphylococcus aureus. The experiment in a line: Antimicrobial activity against Staphylococcus aureus assessed as growth inhibition by microdilution method.
For the next assay, the system named is Streptococcus pyogenes. The experiment in a line: Antimicrobial activity against Streptococcus pyogenes assessed as growth inhibition by microdilution method. (In broth dilution the organism is exposed to a series of concentrations in liquid medium.)
The next assay concerns Alternaria alternata. The experiment in a line: Antimicrobial activity against Alternaria alternata assessed as growth inhibition by microdilution method. Format: functional.
The subject of a further assay is Curvularia australiensis. In words: Antimicrobial activity against Curvularia australiensis assessed as growth inhibition by microdilution method. Format: functional.
Another assay deals with Escherichia coli. In words: Antimicrobial activity against Escherichia coli assessed as growth inhibition by microdilution method.
The test system of another assay is Aspergillus niger. The experiment in a line: Antimicrobial activity against Aspergillus niger assessed as growth inhibition by microdilution method. Format: functional.
In the next assay the test system is Bacillus subtilis. In words: Antimicrobial activity against Bacillus subtilis assessed as growth inhibition by microdilution method.
A further assay relates to Trichoderma reesei. In words: Antimicrobial activity against Trichoderma reesei assessed as growth inhibition by microdilution method. In kind it is functional.
The test system of the next assay is Salmonella typhimurium. In words: Antimicrobial activity against Salmonella enterica subsp. enterica serovar Typhimurium assessed as growth inhibition by microdilution method.
A further assay deals with Klebsiella aerogenes. In words: Antimicrobial activity against Enterobacter aerogenes assessed as growth inhibition by microdilution method.
The test system of the next assay is Aspergillus flavus. The experiment in a line: Antimicrobial activity against Aspergillus flavus assessed as growth inhibition by microdilution method. In kind it is functional.

Turning to `Cc1ccc2nc3c(cc2c1)C=NN=C(Nc1ccccc1C)S3`, the minimal inhibitory concentration (MIC) is 500 µg/mL in the assay with Staphylococcus aureus; 500 µg/mL in the assay on Streptococcus pyogenes; 1000 µg/mL in the assay on Alternaria alternata; 1000 µg/mL in the assay with Curvularia australiensis; 1000 µg/mL with Escherichia coli; 250 µg/mL with Aspergillus niger. For the same compound, the MIC in the assay with Bacillus subtilis is 500 µg/mL; in the assay on Trichoderma reesei it was 125 µg/mL; in the assay on Salmonella typhimurium, 1000 µg/mL; in the assay on Klebsiella aerogenes, 500 µg/mL; with Aspergillus flavus it was 125 µg/mL.

Turning to `Cc1ccc(NC2=NN=Cc3cc4cc(C)ccc4nc3S2)cc1`, the MIC in the assay on Staphylococcus aureus was over 1000 µg/mL; with Streptococcus pyogenes, 1000 µg/mL; in the assay with Alternaria alternata, 500 µg/mL; in the assay on Curvularia australiensis, 1000 µg/mL; in the assay on Escherichia coli, 1000 µg/mL; with Aspergillus niger, 1000 µg/mL. Moreover, the MIC in the assay on Bacillus subtilis was 1000 µg/mL; with Trichoderma reesei, 500 µg/mL; in the assay with Salmonella typhimurium, 60 µg/mL; in the assay with Klebsiella aerogenes it was 60 µg/mL; with Aspergillus flavus it was 1000 µg/mL.

`Cc1ccc2nc3c(cc2c1)C=NN=C(Nc1c(C)cccc1C)S3`: the minimal inhibitory concentration (MIC) with Staphylococcus aureus came out at 1000 µg/mL; with Streptococcus pyogenes, 1000 µg/mL; in the assay with Alternaria alternata it was 500 µg/mL; in the assay with Curvularia australiensis, 1000 µg/mL; with Escherichia coli it was 1000 µg/mL; in the assay with Aspergillus niger, 1000 µg/mL. Besides, the MIC is 1000 µg/mL in the assay with Bacillus subtilis; 250 µg/mL with Trichoderma reesei; 1000 µg/mL with Salmonella typhimurium; 1000 µg/mL in the assay with Klebsiella aerogenes; 1000 µg/mL with Aspergillus flavus.

Take `Cc1ccc(NC2=NN=Cc3cc4cc(C)ccc4nc3S2)c(C)c1`: the minimum inhibitory concentration (MIC) in the assay on Staphylococcus aureus was determined as 500 µg/mL; with Streptococcus pyogenes, 500 µg/mL; in the assay with Alternaria alternata, 500 µg/mL; in the assay on Curvularia australiensis, 500 µg/mL; in the assay with Escherichia coli it was 500 µg/mL; in the assay with Aspergillus niger, 1000 µg/mL. Also, the MIC with Bacillus subtilis was found to be 500 µg/mL; in the assay with Trichoderma reesei, 125 µg/mL; with Salmonella typhimurium, 500 µg/mL; in the assay with Klebsiella aerogenes, 500 µg/mL; in the assay with Aspergillus flavus it was 500 µg/mL.

For the compound `CCc1ccc(NC2=NN=Cc3cc4cc(C)ccc4nc3S2)cc1`, the MIC is over 1000 µg/mL in the assay on Staphylococcus aureus; over 1000 µg/mL in the assay on Streptococcus pyogenes; 500 µg/mL in the assay with Alternaria alternata; 1000 µg/mL in the assay with Curvularia australiensis; over 1000 µg/mL with Escherichia coli; 500 µg/mL in the assay with Aspergillus niger. Moreover, the minimum inhibitory concentration (MIC) with Bacillus subtilis is 1000 µg/mL; in the assay with Trichoderma reesei it was 500 µg/mL; with Salmonella typhimurium, over 1000 µg/mL; with Klebsiella aerogenes, over 1000 µg/mL; with Aspergillus flavus, 1000 µg/mL.

For `Cc1ccc2nc3c(cc2c1)C=NN=C(NCc1ccccc1)S3`, the MIC in the assay on Staphylococcus aureus, in the assay with Streptococcus pyogenes, with Alternaria alternata, in the assay on Curvularia australiensis, in the assay with Escherichia coli and in the assay with Aspergillus niger was 1000 µg/mL each time. Also, the MIC in the assay with Bacillus subtilis was 1000 µg/mL; with Trichoderma reesei, 500 µg/mL; with Salmonella typhimurium it was 1000 µg/mL; in the assay on Klebsiella aerogenes, 1000 µg/mL; in the assay on Aspergillus flavus it was over 1000 µg/mL.

For `Cc1ccc2nc3c(cc2c1)C=NN=C(NCCN1CCOCC1)S3`, the minimum inhibitory concentration (MIC) was 1000 µg/mL with Staphylococcus aureus; over 1000 µg/mL with Streptococcus pyogenes; 500 µg/mL in the assay on Alternaria alternata; 500 µg/mL with Curvularia australiensis; 500 µg/mL in the assay on Escherichia coli; 500 µg/mL in the assay with Aspergillus niger. The minimal inhibitory concentration (MIC) in the assay with Bacillus subtilis was over 1000 µg/mL; in the assay on Trichoderma reesei it was 250 µg/mL; in the assay on Salmonella typhimurium, 1000 µg/mL; in the assay with Klebsiella aerogenes, 1000 µg/mL; in the assay on Aspergillus flavus it was 500 µg/mL.

Take `COc1ccc2nc3c(cc2c1)C=NN=C(Nc1ccccc1)S3`: the minimum inhibitory concentration (MIC) turned out to be 500 µg/mL with Staphylococcus aureus; 60 µg/mL in the assay with Streptococcus pyogenes; 500 µg/mL with Alternaria alternata; 500 µg/mL in the assay on Curvularia australiensis; 500 µg/mL with Escherichia coli; 500 µg/mL in the assay with Aspergillus niger. For the same compound, the MIC in the assay on Bacillus subtilis stood at 500 µg/mL; in the assay on Trichoderma reesei, 1000 µg/mL; in the assay on Salmonella typhimurium, 60 µg/mL; with Klebsiella aerogenes, 125 µg/mL; in the assay with Aspergillus flavus, 500 µg/mL.

With `COc1ccc2nc3c(cc2c1)C=NN=C(Nc1ccccc1F)S3`, the minimal inhibitory concentration (MIC) in the assay with Staphylococcus aureus was found to be 500 µg/mL; with Streptococcus pyogenes it was 500 µg/mL; in the assay on Alternaria alternata, 125 µg/mL; in the assay with Curvularia australiensis, 500 µg/mL; in the assay on Escherichia coli, 1000 µg/mL; with Aspergillus niger it was 500 µg/mL. Further, the MIC was 1000 µg/mL in the assay with Bacillus subtilis; 250 µg/mL in the assay on Trichoderma reesei; over 1000 µg/mL in the assay with Salmonella typhimurium; over 1000 µg/mL with Klebsiella aerogenes; 500 µg/mL in the assay with Aspergillus flavus.

On to `COc1ccc2nc3c(cc2c1)C=NN=C(Nc1cccc(F)c1)S3`, for which the MIC was 500 µg/mL in the assay with Staphylococcus aureus; 500 µg/mL with Streptococcus pyogenes; 500 µg/mL with Alternaria alternata; 500 µg/mL with Curvularia australiensis; 500 µg/mL in the assay with Escherichia coli; 1000 µg/mL with Aspergillus niger. Also, the MIC in the assay on Bacillus subtilis worked out at 60 µg/mL; in the assay with Trichoderma reesei it was 1000 µg/mL; in the assay on Salmonella typhimurium, 1000 µg/mL; in the assay with Klebsiella aerogenes it was 500 µg/mL; with Aspergillus flavus it was 500 µg/mL.

Regarding `COc1ccc2nc3c(cc2c1)C=NN=C(Nc1ccc(F)cc1)S3`, the minimum inhibitory concentration (MIC) with Staphylococcus aureus is 500 µg/mL; in the assay on Streptococcus pyogenes it was 500 µg/mL; with Alternaria alternata it was 60 µg/mL; with Curvularia australiensis, 1000 µg/mL; in the assay on Escherichia coli it was 500 µg/mL; in the assay on Aspergillus niger, 1000 µg/mL. For the same compound, the MIC in the assay with Bacillus subtilis is 500 µg/mL; with Trichoderma reesei, 500 µg/mL; in the assay on Salmonella typhimurium, 250 µg/mL; in the assay with Klebsiella aerogenes, 60 µg/mL; in the assay on Aspergillus flavus, over 1000 µg/mL.

`COc1ccc2nc3c(cc2c1)C=NN=C(Nc1ccccc1Cl)S3`: the minimal inhibitory concentration (MIC) turned out to be 1000 µg/mL with Staphylococcus aureus; 30 µg/mL with Streptococcus pyogenes; 500 µg/mL in the assay on Alternaria alternata; 500 µg/mL with Curvularia australiensis; 500 µg/mL in the assay with Escherichia coli; 500 µg/mL in the assay on Aspergillus niger. For the same compound, the MIC in the assay on Bacillus subtilis is 30 µg/mL; with Trichoderma reesei, 500 µg/mL; in the assay with Salmonella typhimurium, 60 µg/mL; in the assay with Klebsiella aerogenes, 125 µg/mL; in the assay on Aspergillus flavus, 500 µg/mL.

Consider `COc1ccc2nc3c(cc2c1)C=NN=C(Nc1cccc(Cl)c1)S3`, for which the MIC in the assay on Staphylococcus aureus came out at 500 µg/mL; with Streptococcus pyogenes it was 30 µg/mL; with Alternaria alternata, 60 µg/mL; in the assay on Curvularia australiensis, 500 µg/mL; in the assay with Escherichia coli, 30 µg/mL; with Aspergillus niger, 500 µg/mL. Besides, the MIC turned out to be 60 µg/mL in the assay with Bacillus subtilis; 500 µg/mL in the assay on Trichoderma reesei; 500 µg/mL with Salmonella typhimurium; 250 µg/mL in the assay on Klebsiella aerogenes; 500 µg/mL with Aspergillus flavus.

On to `COc1ccc2nc3c(cc2c1)C=NN=C(Nc1ccc(Cl)cc1)S3`, for which the MIC in the assay with Staphylococcus aureus is 500 µg/mL; in the assay with Streptococcus pyogenes, 500 µg/mL; with Alternaria alternata it was 30 µg/mL; in the assay with Curvularia australiensis, 500 µg/mL; with Escherichia coli, 250 µg/mL; in the assay with Aspergillus niger, 500 µg/mL. The minimum inhibitory concentration (MIC) with Bacillus subtilis stood at 60 µg/mL; in the assay on Trichoderma reesei it was 250 µg/mL; in the assay on Salmonella typhimurium, 1000 µg/mL; in the assay on Klebsiella aerogenes, 500 µg/mL; in the assay with Aspergillus flavus, 500 µg/mL.

In the case of `COc1ccc2nc3c(cc2c1)C=NN=C(Nc1ccccc1C)S3`, the MIC turned out to be 1000 µg/mL in the assay on Staphylococcus aureus; 1000 µg/mL with Streptococcus pyogenes; 1000 µg/mL in the assay with Alternaria alternata; 1000 µg/mL in the assay on Curvularia australiensis; 500 µg/mL with Escherichia coli; 1000 µg/mL in the assay with Aspergillus niger. Besides, the minimum inhibitory concentration (MIC) with Bacillus subtilis was determined as 1000 µg/mL; in the assay with Trichoderma reesei, 500 µg/mL; in the assay on Salmonella typhimurium, 125 µg/mL; in the assay on Klebsiella aerogenes, 1000 µg/mL; in the assay on Aspergillus flavus, 500 µg/mL.
